Data set [1] in a line: Stability of ilaprazole racemate stock solution. Type of data set: physicochemical. The following applies: stock solution in acetonitrile, −80 °C for 15 days.
Another data set has as its system CYP3A. The following applies: cited from earlier work.

The text below walks through data of paper PMC7775851 (Journal of Pharmaceutical Analysis, 2019).

The structures appear in SMILES notation.

Consider `COc1ccnc(C[S+]([O-])c2nc3cc(-n4cccc4)ccc3[nH]2)c1C` (racemic) [ilaprazole racemate, ilaprazole], for which the “Stability of stock solution (in words)” value in data set [1] was “stable”. Further, the Metabolizing enzyme entry in the data set with CYP3A is recorded as “mainly metabolized by CYP3A”.
